{"source": "ChEMBL document CHEMBL1153404", "about": "“Design and structural analysis of novel pharmacophores for potent and selective peroxisome proliferator-activated receptor gamma agonists” (J Med Chem, 2009)", "key": {"[1]": {"molecular_target": "T1, Peroxisome proliferator-activated receptor alpha (Homo sapiens, UniProt Q07869)", "T1 sequence (Q07869 whole entry)": "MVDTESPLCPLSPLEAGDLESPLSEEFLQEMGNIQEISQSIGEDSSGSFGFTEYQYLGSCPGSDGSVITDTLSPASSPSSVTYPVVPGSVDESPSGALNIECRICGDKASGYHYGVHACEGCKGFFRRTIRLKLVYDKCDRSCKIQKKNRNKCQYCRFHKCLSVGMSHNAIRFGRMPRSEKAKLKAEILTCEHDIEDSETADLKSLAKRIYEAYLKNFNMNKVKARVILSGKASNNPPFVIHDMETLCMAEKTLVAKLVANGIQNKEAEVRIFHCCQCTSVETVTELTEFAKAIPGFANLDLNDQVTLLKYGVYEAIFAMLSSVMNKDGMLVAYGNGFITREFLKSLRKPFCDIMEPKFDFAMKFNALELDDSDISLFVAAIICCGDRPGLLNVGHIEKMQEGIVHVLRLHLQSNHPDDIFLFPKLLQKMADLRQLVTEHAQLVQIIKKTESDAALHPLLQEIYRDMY", "assay": "Agonist activity at human PPARalpha receptor by cell based transactivation assay", "type": "functional"}, "[2]": {"molecular_target": "T2, Peroxisome proliferator-activated receptor delta (Homo sapiens, UniProt Q03181)", "T2 sequence (Q03181 whole entry)": "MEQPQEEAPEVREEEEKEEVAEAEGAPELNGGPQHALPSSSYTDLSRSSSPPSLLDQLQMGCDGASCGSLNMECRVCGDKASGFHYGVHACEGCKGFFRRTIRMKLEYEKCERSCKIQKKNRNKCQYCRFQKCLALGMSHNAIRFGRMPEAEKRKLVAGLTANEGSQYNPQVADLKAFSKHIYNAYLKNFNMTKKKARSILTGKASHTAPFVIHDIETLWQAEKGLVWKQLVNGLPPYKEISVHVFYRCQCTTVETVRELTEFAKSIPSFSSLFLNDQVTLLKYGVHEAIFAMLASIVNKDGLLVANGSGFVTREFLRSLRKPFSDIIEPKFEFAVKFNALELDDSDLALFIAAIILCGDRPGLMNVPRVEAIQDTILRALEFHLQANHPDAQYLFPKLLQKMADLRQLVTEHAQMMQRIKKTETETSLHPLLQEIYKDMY", "assay": "Agonist activity at human PPARdelta receptor by cell based transactivation assay"}, "[3]": {"molecular_target": "T3, Peroxisome proliferator-activated receptor gamma (Homo sapiens, UniProt P37231)", "T3 sequence (P37231 whole entry)": "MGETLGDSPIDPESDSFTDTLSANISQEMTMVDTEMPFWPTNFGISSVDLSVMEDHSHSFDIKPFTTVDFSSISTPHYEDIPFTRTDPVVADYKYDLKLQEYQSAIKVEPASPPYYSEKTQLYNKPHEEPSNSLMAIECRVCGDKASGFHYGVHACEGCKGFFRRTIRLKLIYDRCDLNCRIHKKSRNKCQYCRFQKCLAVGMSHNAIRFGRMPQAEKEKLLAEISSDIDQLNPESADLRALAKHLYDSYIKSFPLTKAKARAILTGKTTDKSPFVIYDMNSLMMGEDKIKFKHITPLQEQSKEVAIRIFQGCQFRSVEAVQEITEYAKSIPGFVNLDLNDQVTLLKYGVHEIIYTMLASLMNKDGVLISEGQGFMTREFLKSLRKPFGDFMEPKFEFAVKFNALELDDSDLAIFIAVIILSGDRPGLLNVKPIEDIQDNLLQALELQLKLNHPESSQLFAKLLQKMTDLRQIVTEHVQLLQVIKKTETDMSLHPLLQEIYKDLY", "description": "Agonist activity at human PPARgamma receptor by cell based transactivation assay"}, "Homo sapiens [4]": {"species": "Homo sapiens", "assay": "Selectivity of EC50 for human PPARgamma receptor over EC50 for human PPARalpha receptor"}, "Homo sapiens [5]": {"species": "Homo sapiens", "assay": "Selectivity of EC50 for human PPARalpha receptor over EC50 for human PPARdelta receptor"}, "Homo sapiens [6]": {"species": "Homo sapiens", "assay": "Selectivity of EC50 for human PPARalpha receptor over EC50 for human PPARgamma receptor"}}}
{"smiles": "CCCc1cc(C(=O)c2ccc(OC)cc2)ccc1OCCCn1ccc2cc(OC(C)(C)C(=O)O)ccc21", "values": [{"measurement": "EC50", "setting": "[1]", "result": 50, "unit": "nM"}, {"measurement": "EC50", "setting": "[2]", "result": 4450, "unit": "nM"}, {"measurement": "EC50", "setting": "[3]", "result": 470, "unit": "nM"}]}
{"smiles": "CCCc1c(OCCCn2ccc3cc(OC(C)(C)C(=O)O)ccc32)ccc2cc(C(C)=O)ccc12", "values": [{"measurement": "EC50", "setting": "[1]", "result": "> 10000", "unit": "nM"}, {"measurement": "EC50", "setting": "[2]", "result": "> 10000", "unit": "nM"}, {"measurement": "EC50", "setting": "[3]", "result": 1070, "unit": "nM"}]}
{"smiles": "CCCc1cc(C(=O)c2ccccc2)ccc1OCCCn1ccc2cc(OC(C)(C)C(=O)O)ccc21", "values": [{"measurement": "EC50", "setting": "[1]", "result": 40, "unit": "nM"}, {"measurement": "EC50", "setting": "[2]", "result": 5270, "unit": "nM"}, {"measurement": "EC50", "setting": "[3]", "result": 420, "unit": "nM"}]}
{"smiles": "CCCc1c(OCCCn2ccc3cc(OC(C)(C)C(=O)O)ccc32)ccc2c(C(=O)c3ccccc3)cccc12", "values": [{"measurement": "EC50", "setting": "[1]", "result": 200, "unit": "nM"}, {"measurement": "EC50", "setting": "[2]", "result": "> 10000", "unit": "nM"}, {"measurement": "EC50", "setting": "[3]", "result": 3500, "unit": "nM"}]}
{"smiles": "CCCc1c(OCCCn2ccc3cc(OC(C)(C)C(=O)O)ccc32)ccc2cc(C(=O)c3ccccc3)ccc12", "values": [{"measurement": "EC50", "setting": "[2]", "result": "> 10000", "unit": "nM"}]}
{"smiles": "CCCc1c(OCCCn2ccc3cc(OC(C)(C)C(=O)O)ccc32)ccc2cc(Cc3ccccc3)ccc12", "values": [{"measurement": "EC50", "setting": "[1]", "result": "> 10000", "unit": "nM"}, {"measurement": "EC50", "setting": "[2]", "result": "> 10000", "unit": "nM"}, {"measurement": "EC50", "setting": "[3]", "result": "> 10000", "unit": "nM"}]}
{"smiles": "CCCc1cc(C(=O)c2ccccc2)ccc1OCCCn1ccc2c(OC(C)(C)C(=O)O)cccc21", "values": [{"measurement": "EC50", "setting": "[1]", "result": 30, "unit": "nM"}, {"measurement": "EC50", "setting": "[2]", "result": "> 10000", "unit": "nM"}, {"measurement": "EC50", "setting": "[3]", "result": "> 10000", "unit": "nM"}]}
{"smiles": "CCCc1cc(C(=O)c2ccc(-c3ccccc3)cc2)ccc1OCCCn1ccc2cc(OC(C)(C)C(=O)O)ccc21", "values": [{"measurement": "EC50", "setting": "[1]", "result": 1920, "unit": "nM"}, {"measurement": "EC50", "setting": "[2]", "result": "> 10000", "unit": "nM"}, {"measurement": "EC50", "setting": "[3]", "result": 120, "unit": "nM"}, {"measurement": "fold change (FC)", "setting": "Homo sapiens [4]", "result": 15}]}
{"smiles": "CCCc1c(OCCCN2CCCc3c(OC(C)(C)C(=O)O)cccc32)ccc2cc(C(=O)c3ccccc3)ccc12", "values": [{"measurement": "EC50", "setting": "[1]", "result": 120, "unit": "nM"}, {"measurement": "EC50", "setting": "[2]", "result": "> 10000", "unit": "nM"}, {"measurement": "EC50", "setting": "[3]", "result": 100, "unit": "nM"}]}
{"smiles": "CN(CCOc1ccc(CC2SC(=O)NC2=O)cc1)c1ccccn1", "note": "(stereo not given)", "values": [{"measurement": "Activity", "setting": "Homo sapiens [4]", "result": 80}]}
{"smiles": "CCCc1c(OCCCN2CCCc3cc(OC(C)(C)C(=O)O)ccc32)ccc2cc(C(=O)c3ccccc3)ccc12", "values": [{"measurement": "EC50", "setting": "[1]", "result": 240, "unit": "nM"}, {"measurement": "EC50", "setting": "[2]", "result": "> 10000", "unit": "nM"}, {"measurement": "EC50", "setting": "[3]", "result": 540, "unit": "nM"}]}
{"smiles": "CCCc1cc(C(=O)c2ccc(-c3ccccc3)cc2)ccc1OCCCN1CCCc2c(OC(C)(C)C(=O)O)cccc21", "values": [{"measurement": "EC50", "setting": "[1]", "result": 3990, "unit": "nM"}, {"measurement": "EC50", "setting": "[2]", "result": "> 10000", "unit": "nM"}, {"measurement": "EC50", "setting": "[3]", "result": 50, "unit": "nM"}]}
{"smiles": "CCCc1cc(C(=O)c2ccc(F)cc2)ccc1OCCCn1ccc2cc(OC(C)(C)C(=O)O)ccc21", "values": [{"measurement": "EC50", "setting": "[1]", "result": 130, "unit": "nM"}, {"measurement": "EC50", "setting": "[2]", "result": "> 10000", "unit": "nM"}, {"measurement": "EC50", "setting": "[3]", "result": 900, "unit": "nM"}]}
{"smiles": "CCCc1c(OCCCn2ccc3cc(OC(C)(C)C(=O)O)ccc32)ccc2cc(C(=O)c3ccncc3)ccc12", "values": [{"measurement": "EC50", "setting": "[1]", "result": "> 10000", "unit": "nM"}, {"measurement": "EC50", "setting": "[2]", "result": "> 10000", "unit": "nM"}, {"measurement": "EC50", "setting": "[3]", "result": 2070, "unit": "nM"}]}
{"smiles": "CCCc1cc(C(=O)c2ccc3ccccc3c2)ccc1OCCCn1ccc2cc(OC(C)(C)C(=O)O)ccc21", "values": [{"measurement": "EC50", "setting": "[1]", "result": 30, "unit": "nM"}, {"measurement": "EC50", "setting": "[2]", "result": "> 10000", "unit": "nM"}, {"measurement": "EC50", "setting": "[3]", "result": 370, "unit": "nM"}]}
{"smiles": "CCCc1cc(C(=O)c2ccc(-c3ccccc3)cc2)ccc1OCCCN1CCCc2cc(OC(C)(C)C(=O)O)ccc21", "values": [{"measurement": "EC50", "setting": "[1]", "result": "> 10000", "unit": "nM"}, {"measurement": "EC50", "setting": "[2]", "result": "> 10000", "unit": "nM"}, {"measurement": "EC50", "setting": "[3]", "result": 100, "unit": "nM"}]}
{"smiles": "CCCc1c(OCCCn2ccc3cc(OC(C)(C)C(=O)O)ccc32)ccc2cc(C(=O)c3ccoc3)ccc12", "values": [{"measurement": "EC50", "setting": "[1]", "result": 130, "unit": "nM"}, {"measurement": "EC50", "setting": "[2]", "result": "> 10000", "unit": "nM"}, {"measurement": "EC50", "setting": "[3]", "result": 430, "unit": "nM"}]}
{"smiles": "CCCc1cc(C(=O)c2ccc(-c3ccccc3)cc2)ccc1OCCCn1ccc2c(OC(C)(C)C(=O)O)cccc21", "values": [{"measurement": "fold change (FC)", "setting": "Homo sapiens [5]", "result": "> 300"}, {"measurement": "EC50", "setting": "[1]", "result": 4070, "unit": "nM"}, {"measurement": "EC50", "setting": "[2]", "result": "> 10000", "unit": "nM"}, {"measurement": "EC50", "setting": "[3]", "result": 300, "unit": "nM"}, {"measurement": "fold change (FC)", "setting": "Homo sapiens [6]", "result": "> 300"}, {"measurement": "fold change (FC)", "setting": "Homo sapiens [4]", "result": 15}]}
{"smiles": "CCCc1cc(C(=O)c2ccc3ccccc3c2)ccc1OCCCn1ccc2c(OC(C)(C)C(=O)O)cccc21", "values": [{"measurement": "fold change (FC)", "setting": "Homo sapiens [5]", "result": "> 100"}, {"measurement": "EC50", "setting": "[1]", "result": 30, "unit": "nM"}, {"measurement": "EC50", "setting": "[2]", "result": "> 10000", "unit": "nM"}, {"measurement": "EC50", "setting": "[3]", "result": 2800, "unit": "nM"}, {"measurement": "fold change (FC)", "setting": "Homo sapiens [6]", "result": "> 100"}]}
{"smiles": "CCCc1c(OCCCn2ccc3cc(OC(C)(C)C(=O)O)ccc32)ccc2cc(C(=O)c3ccc(OC)cc3)ccc12", "values": [{"measurement": "EC50", "setting": "[1]", "result": 130, "unit": "nM"}, {"measurement": "EC50", "setting": "[2]", "result": "> 10000", "unit": "nM"}, {"measurement": "EC50", "setting": "[3]", "result": 510, "unit": "nM"}]}
{"smiles": "CCCc1c(OCCCn2ccc3cc(OC(C)(C)C(=O)O)ccc32)ccc2cc(C(=O)c3ccc(F)cc3)ccc12", "values": [{"measurement": "EC50", "setting": "[1]", "result": "> 10000", "unit": "nM"}, {"measurement": "EC50", "setting": "[2]", "result": "> 10000", "unit": "nM"}, {"measurement": "EC50", "setting": "[3]", "result": 2120, "unit": "nM"}]}
